# From US20060058374A1, “Urotensin II receptor agents” (priority 2002, published 2006)
# Where two headings read alike, the source gives them in different places.
# Assays:
# Type in all cases: cell-based
# [1] = molecular target: T1, Serotonin 5HT-1E (Homo sapiens, UniProt P28566); assay: R-SAT assay, Serotonin 5HT-1E; details: percent maximal activation relative to control compound
# T1 construct: expressed in transfected cells; host or cells: NIH3T3
# Protocol: (§1) The test compound of Formula III was screened according to a modification of the method described in U.S. Pat. No. 5,912,312. The method, herein referred to as Method 1, consists of the following:
# (§2) Receptor Selection and Amplification (R-SAT) Assays.
# (§3) R-SAT assays were performed with minor modifications from that previously described (6). Briefly, NIH3T3 cells were grown in tissue culture treated rollerbottles to 40-50% confluence. Cells were transfected for 12-16 hours with plasmid DNAs using superfect (Qiagen Inc.) as per manufacture's protocols. R-SAT's were generally performed with 10 μg/rollerbottle of receptor and 50 μg/rollerbottle of Beta-galactosidase plasmid DNA. All receptor and G-protein constructs used were in the PSI mammalian expression vector (Promega Inc.). The transfected cells were then trypsinized and frozen in DMEM containing 10% DMSO. Frozen cells were later thawed, plated at 10,000-40,000 cells per well of a 96 ½ area plate that contained drug. […] Media was then removed from the plates and marker gene activity was measured by the addition of the beta-galactosidase substrate ONPG (in PBS with 5% NP-40). The resulting colorimetric reaction was measured in a spectrophotometric plate reader (Titertek Inc.) at […].
# (§4) EC50, IC50 and Ki are presented as the negative of the calculated potency in Molar.
# [2] = molecular target: T2, CRF2a (Homo sapiens, UniProt Q13324); assay: R-SAT assay, CRF2a; details: percent maximal activation relative to control compound
# T2 construct: expressed in transfected cells; host or cells: NIH3T3
# Protocol: as §1, §2, §3, §4
# [3] = molecular target: T3, SST3 (Homo sapiens, UniProt P32745); assay: R-SAT assay, SST3; details: percent maximal activation relative to control compound
# T3 construct: expressed in transfected cells; host or cells: NIH3T3
# Protocol: as §1, §2, §3, §4
# [4] = molecular target: T4, CRF1 (Homo sapiens, UniProt P34998); assay: R-SAT assay, CRF1; details: percent maximal activation relative to control compound
# T4 construct: expressed in transfected cells; host or cells: NIH3T3
# Protocol: as §1, §2, §3, §4
# [5] = molecular target: T5, Serotonin 5HT-1A (Homo sapiens, UniProt P08908); assay: R-SAT assay, Serotonin 5HT-1A; details: competitive antagonist mode; percent maximal inhibition relative to control standard compound
# T5 construct: expressed in transfected cells; host or cells: NIH3T3
# Protocol: as §1, §2, §3, §4
# [6] = molecular target: T6, CRF2b (Homo sapiens, UniProt Q13324); assay: R-SAT assay, CRF2b; details: percent maximal activation relative to control compound
# T6 construct: expressed in transfected cells; host or cells: NIH3T3
# Protocol: as §1, §2, §3, §4
# [7] = molecular target: T7, Serotonin 5HT2c (Homo sapiens, UniProt P28335); assay: R-SAT assay, Serotonin 5HT2c; details: inverse agonist mode; percent maximal inhibition relative to repression of basal activity by a control standard compound
# T7 construct: expressed in transfected cells; host or cells: NIH3T3
# Protocol: as §1, §2, §3, §4
# [8] = molecular target: T8, SST2 (Homo sapiens, UniProt P30874); assay: R-SAT assay, SST2; details: percent maximal activation relative to control compound
# T8 construct: expressed in transfected cells; host or cells: NIH3T3
# Protocol: as §1, §2, §3, §4
# [9] = molecular target: T9, SST5 (Homo sapiens, UniProt P35346); assay: R-SAT assay, SST5; details: percent maximal activation relative to control compound
# T9 construct: expressed in transfected cells; host or cells: NIH3T3
# Protocol: as §1, §2, §3, §4
# [10] = molecular target: T10, Acetylcholine m3 (Homo sapiens, UniProt P20309); assay: R-SAT assay, Acetylcholine m3
# T10 construct: expressed in transfected cells; host or cells: NIH3T3
# Protocol: as §1, §2, §3, §4
# [11] = molecular target: T11, Acetylcholine m1 (Homo sapiens, UniProt P11229); assay: R-SAT assay, Acetylcholine m1
# T11 construct: expressed in transfected cells; host or cells: NIH3T3
# Protocol: as §1, §2, §3, §4
# [12] = molecular target: T12, urotensin II receptor (Homo sapiens, UniProt Q9UKP6); assay: R-SAT assay, Urotensin II receptor
# T12 construct: expressed in transfected cells; host or cells: NIH3T3
# T12 sequence (Q9UKP6 1-389): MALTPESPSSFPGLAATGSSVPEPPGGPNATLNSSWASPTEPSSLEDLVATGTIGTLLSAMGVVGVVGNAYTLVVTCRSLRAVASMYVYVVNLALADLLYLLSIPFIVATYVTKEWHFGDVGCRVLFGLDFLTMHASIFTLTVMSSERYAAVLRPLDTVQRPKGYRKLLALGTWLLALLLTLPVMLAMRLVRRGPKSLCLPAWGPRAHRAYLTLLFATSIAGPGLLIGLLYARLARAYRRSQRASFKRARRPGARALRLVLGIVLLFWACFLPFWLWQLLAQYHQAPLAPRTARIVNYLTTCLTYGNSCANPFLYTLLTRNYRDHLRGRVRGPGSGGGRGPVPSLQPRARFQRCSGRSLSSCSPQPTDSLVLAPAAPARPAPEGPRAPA
# Protocol: as §1, §2
# (§5) R-SAT assays were performed with minor modifications from that previously described (6). Briefly, NIH3T3 cells were grown in tissue culture treated rollerbottles to 40-50% confluence. Cells were transfected for 12-16 hours with plasmid DNAs using superfect (Qiagen Inc.) as per manufacture's protocols. R-SAT's were generally performed with 10 μg/rollerbottle of receptor and 50 μg/rollerbottle of Beta-galactosidase plasmid DNA. All receptor and G-protein constructs used were in the PSI mammalian expression vector (Promega Inc.). The transfected cells were then trypsinized and frozen in DMEM containing 10% DMSO. Frozen cells were later thawed, plated at 10,000-40,000 cells per well of a 96 ½ area plate that contained drug. Cells were then grown in a humidified atmosphere with 5% ambient CO2 for five days. Media was then removed from the plates and marker gene activity was measured by the addition of the beta-galactosidase substrate ONPG (in PBS with 5% NP-40). The resulting colorimetric reaction was measured in a spectrophotometric plate reader (Titertek Inc.) at […].
# as §4
# [13] = molecular target: T13, Acetylcholine m5 (Homo sapiens, UniProt P08912); assay: R-SAT assay, Acetylcholine m5
# T13 construct: expressed in transfected cells; host or cells: NIH3T3
# T13 sequence (P08912 1-532): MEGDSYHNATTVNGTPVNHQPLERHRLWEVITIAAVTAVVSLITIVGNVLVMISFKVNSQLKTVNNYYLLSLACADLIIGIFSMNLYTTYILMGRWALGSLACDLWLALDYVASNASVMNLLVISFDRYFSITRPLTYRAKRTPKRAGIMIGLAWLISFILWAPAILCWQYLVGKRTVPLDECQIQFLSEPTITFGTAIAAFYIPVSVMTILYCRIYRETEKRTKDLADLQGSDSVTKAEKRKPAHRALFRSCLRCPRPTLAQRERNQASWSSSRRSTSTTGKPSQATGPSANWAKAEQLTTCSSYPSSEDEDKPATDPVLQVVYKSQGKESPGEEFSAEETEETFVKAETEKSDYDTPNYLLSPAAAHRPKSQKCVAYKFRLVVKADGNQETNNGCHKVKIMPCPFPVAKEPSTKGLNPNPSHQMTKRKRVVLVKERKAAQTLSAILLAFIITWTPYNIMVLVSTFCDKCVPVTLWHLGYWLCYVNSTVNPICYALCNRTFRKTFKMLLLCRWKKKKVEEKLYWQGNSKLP
# Protocol: as §1, §2, §5, §4
# [14] = molecular target: T14, Histamine H1 (Homo sapiens, UniProt P35367); assay: R-SAT assay, Histamine H1; details: competitive antagonist mode; percent maximal inhibition relative to control standard compound
# T14 construct: expressed in transfected cells; host or cells: NIH3T3 cells, receptor plasmid in PSI mammalian expression vector (Promega)
# Protocol: as §1, §2, §3, §4
# [15] = molecular target: T15, Beta Adrenergic 1 (Homo sapiens, UniProt P08588); assay: R-SAT assay, Beta Adrenergic 1; details: percent maximal activation relative to control compound
# T15 construct: expressed in transfected cells; host or cells: NIH3T3
# Protocol: as §1, §2, §3, §4
# [16] = molecular target: T16, Histamine H2 (Homo sapiens, UniProt P25021); assay: R-SAT assay, Histamine H2
# T16 construct: expressed in transfected cells; host or cells: NIH3T3
# Protocol: as §1, §2, §3, §4
# [17] = molecular target: T17, Dopamine D1 (Homo sapiens, UniProt P21728); assay: R-SAT assay, Dopamine D1
# T17 construct: expressed in transfected cells; host or cells: NIH3T3
# Protocol: as §1, §2, §3, §4
# [18] = molecular target: T18, Dopamine D5 (Homo sapiens, UniProt P21918); assay: R-SAT assay, Dopamine D5
# T18 construct: expressed in transfected cells; host or cells: NIH3T3
# Protocol: as §1, §2, §3, §4
# [19] = competitive antagonist mode, percent maximal inhibition relative to control standard compound
# [20] = percent maximal activation relative to control compound
# T18 sequence (P21918 whole entry): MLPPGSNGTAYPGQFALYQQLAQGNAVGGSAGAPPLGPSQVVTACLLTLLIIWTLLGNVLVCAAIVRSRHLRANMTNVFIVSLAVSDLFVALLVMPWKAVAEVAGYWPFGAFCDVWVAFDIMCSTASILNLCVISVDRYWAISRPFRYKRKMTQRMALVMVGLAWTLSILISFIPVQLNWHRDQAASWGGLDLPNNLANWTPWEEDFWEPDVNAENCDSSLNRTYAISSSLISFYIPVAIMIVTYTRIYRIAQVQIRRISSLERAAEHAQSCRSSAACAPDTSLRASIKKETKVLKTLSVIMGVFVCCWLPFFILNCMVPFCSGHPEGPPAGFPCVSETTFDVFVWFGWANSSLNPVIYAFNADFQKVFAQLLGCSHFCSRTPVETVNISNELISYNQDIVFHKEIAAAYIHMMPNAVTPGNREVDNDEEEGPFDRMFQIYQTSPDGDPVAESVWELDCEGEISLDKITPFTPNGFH
# T11 sequence (P11229 whole entry): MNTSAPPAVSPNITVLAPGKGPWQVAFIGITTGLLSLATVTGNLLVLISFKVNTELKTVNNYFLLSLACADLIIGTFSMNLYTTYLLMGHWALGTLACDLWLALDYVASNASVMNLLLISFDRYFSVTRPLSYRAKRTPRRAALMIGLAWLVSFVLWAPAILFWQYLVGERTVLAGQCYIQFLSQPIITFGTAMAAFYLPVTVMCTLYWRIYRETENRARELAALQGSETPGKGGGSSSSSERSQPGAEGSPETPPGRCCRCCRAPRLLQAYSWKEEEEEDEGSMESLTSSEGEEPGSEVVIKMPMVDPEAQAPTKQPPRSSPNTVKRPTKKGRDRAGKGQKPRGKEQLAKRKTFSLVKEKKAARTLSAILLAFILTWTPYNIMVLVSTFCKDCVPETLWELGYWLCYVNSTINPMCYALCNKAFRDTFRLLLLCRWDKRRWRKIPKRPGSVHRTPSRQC
# T17 sequence (P21728 whole entry): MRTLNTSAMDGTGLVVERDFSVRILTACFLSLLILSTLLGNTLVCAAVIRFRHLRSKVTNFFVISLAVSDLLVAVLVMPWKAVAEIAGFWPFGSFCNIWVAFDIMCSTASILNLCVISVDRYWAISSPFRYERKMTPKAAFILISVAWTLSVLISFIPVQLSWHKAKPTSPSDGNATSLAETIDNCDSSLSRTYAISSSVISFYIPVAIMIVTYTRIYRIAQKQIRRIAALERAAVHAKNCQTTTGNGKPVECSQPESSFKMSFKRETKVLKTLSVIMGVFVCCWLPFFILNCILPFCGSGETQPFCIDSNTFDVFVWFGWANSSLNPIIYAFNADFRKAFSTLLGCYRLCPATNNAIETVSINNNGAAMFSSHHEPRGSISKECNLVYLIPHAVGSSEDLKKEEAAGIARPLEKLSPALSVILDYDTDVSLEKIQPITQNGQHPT
# T16 sequence (P25021 whole entry): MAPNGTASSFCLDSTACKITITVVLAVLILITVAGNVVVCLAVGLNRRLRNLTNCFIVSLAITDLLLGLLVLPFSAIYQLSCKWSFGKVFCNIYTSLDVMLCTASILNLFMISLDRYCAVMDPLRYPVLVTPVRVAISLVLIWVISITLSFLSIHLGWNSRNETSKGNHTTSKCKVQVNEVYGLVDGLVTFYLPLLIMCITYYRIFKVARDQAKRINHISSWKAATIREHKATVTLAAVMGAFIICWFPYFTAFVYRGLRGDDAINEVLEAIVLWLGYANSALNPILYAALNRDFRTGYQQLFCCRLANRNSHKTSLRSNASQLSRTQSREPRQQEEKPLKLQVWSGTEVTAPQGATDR
# T10 sequence (P20309 whole entry): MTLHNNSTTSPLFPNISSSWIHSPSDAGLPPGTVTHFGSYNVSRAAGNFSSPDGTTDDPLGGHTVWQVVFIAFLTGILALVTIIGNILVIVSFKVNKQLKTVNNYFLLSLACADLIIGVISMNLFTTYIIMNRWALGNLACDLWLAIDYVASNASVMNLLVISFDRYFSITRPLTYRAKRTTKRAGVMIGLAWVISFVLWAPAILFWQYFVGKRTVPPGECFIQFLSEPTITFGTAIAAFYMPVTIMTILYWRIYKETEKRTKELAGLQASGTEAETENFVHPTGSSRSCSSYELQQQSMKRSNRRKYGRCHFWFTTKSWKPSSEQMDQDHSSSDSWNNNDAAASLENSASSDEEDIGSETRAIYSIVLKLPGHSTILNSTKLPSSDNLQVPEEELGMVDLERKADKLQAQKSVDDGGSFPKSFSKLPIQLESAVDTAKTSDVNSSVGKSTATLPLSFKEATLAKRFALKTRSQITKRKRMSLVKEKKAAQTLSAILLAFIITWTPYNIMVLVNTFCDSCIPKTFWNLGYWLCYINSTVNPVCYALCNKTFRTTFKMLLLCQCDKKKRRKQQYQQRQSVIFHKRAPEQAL
# T2 sequence (Q13324 whole entry): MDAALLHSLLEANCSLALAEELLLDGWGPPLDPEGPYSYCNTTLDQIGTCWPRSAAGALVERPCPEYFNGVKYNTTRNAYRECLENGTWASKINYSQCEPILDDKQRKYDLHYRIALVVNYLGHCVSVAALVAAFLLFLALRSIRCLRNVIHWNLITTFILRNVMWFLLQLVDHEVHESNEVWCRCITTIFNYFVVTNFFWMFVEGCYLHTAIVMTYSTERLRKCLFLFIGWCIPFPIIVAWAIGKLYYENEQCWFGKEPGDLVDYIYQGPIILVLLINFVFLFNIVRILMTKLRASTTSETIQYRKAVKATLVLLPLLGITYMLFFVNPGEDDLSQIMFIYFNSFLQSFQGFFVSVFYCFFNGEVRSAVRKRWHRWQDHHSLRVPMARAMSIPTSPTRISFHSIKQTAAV
# T5 sequence (P08908 whole entry): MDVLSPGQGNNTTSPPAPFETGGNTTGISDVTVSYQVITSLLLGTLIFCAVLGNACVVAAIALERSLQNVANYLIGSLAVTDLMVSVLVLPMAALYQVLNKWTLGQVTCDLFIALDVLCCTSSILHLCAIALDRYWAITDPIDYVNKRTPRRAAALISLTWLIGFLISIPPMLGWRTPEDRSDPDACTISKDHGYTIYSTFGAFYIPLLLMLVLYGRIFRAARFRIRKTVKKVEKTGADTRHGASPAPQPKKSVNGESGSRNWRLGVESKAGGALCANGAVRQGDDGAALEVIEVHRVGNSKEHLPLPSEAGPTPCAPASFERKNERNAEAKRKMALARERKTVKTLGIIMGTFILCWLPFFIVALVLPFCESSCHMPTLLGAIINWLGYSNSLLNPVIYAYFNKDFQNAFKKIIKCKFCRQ
# T6 sequence (Q13324 1-438 isoform Q13324-2): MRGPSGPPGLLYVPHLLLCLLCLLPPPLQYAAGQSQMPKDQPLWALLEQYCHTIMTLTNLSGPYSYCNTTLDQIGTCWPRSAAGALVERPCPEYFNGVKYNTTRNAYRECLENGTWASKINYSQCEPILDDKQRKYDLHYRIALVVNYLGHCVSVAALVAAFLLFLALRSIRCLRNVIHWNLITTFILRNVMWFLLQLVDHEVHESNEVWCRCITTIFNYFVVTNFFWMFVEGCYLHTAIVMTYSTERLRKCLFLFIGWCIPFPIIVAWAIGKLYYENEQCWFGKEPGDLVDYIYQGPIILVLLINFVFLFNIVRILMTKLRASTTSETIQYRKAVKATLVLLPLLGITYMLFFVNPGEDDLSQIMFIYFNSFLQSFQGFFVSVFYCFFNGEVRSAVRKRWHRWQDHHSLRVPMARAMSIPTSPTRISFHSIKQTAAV
# T3 sequence (P32745 whole entry, species assumed): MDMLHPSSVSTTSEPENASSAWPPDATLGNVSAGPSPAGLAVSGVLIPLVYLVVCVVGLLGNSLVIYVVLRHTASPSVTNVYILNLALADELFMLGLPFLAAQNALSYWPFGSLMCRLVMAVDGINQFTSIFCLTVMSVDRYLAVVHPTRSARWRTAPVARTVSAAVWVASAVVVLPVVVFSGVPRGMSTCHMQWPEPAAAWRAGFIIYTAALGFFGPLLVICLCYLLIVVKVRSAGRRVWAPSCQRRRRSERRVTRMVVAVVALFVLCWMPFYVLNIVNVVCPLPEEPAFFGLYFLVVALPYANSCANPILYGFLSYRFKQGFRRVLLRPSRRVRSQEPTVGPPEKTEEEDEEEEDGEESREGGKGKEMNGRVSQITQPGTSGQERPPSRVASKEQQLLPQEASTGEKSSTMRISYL
# T7 sequence (P28335 33-458): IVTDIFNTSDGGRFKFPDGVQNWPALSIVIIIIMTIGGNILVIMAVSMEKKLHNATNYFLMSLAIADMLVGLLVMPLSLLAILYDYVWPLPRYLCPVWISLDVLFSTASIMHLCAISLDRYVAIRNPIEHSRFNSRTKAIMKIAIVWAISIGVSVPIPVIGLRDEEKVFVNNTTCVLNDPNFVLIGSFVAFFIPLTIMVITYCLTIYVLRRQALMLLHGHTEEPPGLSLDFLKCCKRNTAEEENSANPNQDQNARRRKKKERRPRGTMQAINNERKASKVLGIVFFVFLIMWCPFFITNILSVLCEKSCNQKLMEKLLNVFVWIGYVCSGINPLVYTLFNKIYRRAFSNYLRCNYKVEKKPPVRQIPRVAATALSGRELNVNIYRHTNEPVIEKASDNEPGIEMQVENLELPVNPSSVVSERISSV
# T15 sequence (P08588 whole entry): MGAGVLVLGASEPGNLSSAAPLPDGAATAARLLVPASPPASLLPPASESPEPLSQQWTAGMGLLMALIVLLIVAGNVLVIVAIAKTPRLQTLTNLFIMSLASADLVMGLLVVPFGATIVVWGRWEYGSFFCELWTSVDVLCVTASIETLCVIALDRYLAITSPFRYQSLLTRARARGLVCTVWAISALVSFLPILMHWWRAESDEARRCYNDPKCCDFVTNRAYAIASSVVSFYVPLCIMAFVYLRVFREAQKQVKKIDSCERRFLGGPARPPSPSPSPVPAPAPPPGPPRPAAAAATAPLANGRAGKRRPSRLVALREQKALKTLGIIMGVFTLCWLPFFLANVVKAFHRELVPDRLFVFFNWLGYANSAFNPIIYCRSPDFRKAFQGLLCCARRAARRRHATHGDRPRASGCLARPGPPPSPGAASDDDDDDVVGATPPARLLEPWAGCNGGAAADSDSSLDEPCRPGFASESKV
smiles,measurement,setting,value
CN(C)CCC1(c2ccc(Cl)cc2)Cc2ccccc2C(=O)O1 (stereo not shown) [Formula III],Agonist % Eff,[1],19%
same,Agonist % Eff,[2],0%
same,Agonist % Eff,[3],0%
same,Agonist % Eff,[4],0%
same,Competitive Antagonist % Inh,[5],0%
same,Agonist % Eff,[6],0%
same,Inverse Agonist % Inh,[7],0%
same,Agonist % Eff,[8],0%
same,Agonist % Eff,[9],0%
same,Competitive Antagonist % Inh,[10]; [19],28%
same,Agonist % Eff,[10]; [20],1.8%
same,Competitive Antagonist % Inh,[11]; [19],13%
same,Agonist % Eff,[11]; [20],3%
same,EC50,"[12]; agonist mode, negative of the calculated potency in Molar, read-out: Agonist EC50 (converted)",0.1 µM
same,maximal biological response,[12]; compared with the response evoked by the urotensin II peptide,equal to or greater than the response evoked by the urotensin II peptide
same,EC50,"[12]; functional potency, Example 1 (Method 1), read-out: EC50 for the urotensin II receptor",0.2 µM
same,Agonist % Eff,[12]; [20],132%
same,Ki,"[13]; competitive antagonist mode, negative of the calculated potency in Molar",> 2.24 µM
same,Competitive Antagonist % Inh,[13]; [19],55%
same,Agonist % Eff,[13]; [20],3.6%
same,Competitive Antagonist % Inh,[14],0%
same,Agonist % Eff,[15],0%
same,Inverse Agonist % Inh,"[16]; inverse agonist mode, percent maximal inhibition relative to repression of basal activity by a control standard compound",0%
same,Agonist % Eff,[16]; [20],0%
same,Competitive Antagonist % Inh,[17]; [19],0%
same,Agonist % Eff,[17]; [20],0%
same,Competitive Antagonist % Inh,[18]; [19],0%
same,Agonist % Eff,[18]; [20],0%
